The target of one test is T1, SHP2 (full length) (Homo sapiens, UniProt Q06124).
T1 construct: SHP2 (full length, diluted to 100 pM final concentration in reaction buffer, BPS bioscience, US); purchased BPS bioscience, US
T1 sequence (Q06124 1-593): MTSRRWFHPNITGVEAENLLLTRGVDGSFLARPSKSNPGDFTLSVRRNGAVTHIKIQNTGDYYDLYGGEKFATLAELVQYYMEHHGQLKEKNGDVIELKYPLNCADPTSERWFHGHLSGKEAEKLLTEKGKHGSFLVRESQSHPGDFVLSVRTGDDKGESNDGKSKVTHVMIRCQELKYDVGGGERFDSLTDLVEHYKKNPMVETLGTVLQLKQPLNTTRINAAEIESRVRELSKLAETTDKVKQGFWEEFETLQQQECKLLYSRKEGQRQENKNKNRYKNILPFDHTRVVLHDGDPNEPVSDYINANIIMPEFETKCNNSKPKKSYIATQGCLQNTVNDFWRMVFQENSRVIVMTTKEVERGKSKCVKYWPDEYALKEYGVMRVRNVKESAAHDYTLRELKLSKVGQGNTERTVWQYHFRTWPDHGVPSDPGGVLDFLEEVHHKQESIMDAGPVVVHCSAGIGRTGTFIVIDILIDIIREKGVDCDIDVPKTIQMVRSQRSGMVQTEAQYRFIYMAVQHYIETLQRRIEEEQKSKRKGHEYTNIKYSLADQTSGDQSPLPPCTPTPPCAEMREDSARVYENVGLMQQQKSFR
Kind of test: Phosphatase assay (PTPase assay) with DiFMUP substrate. As to conditions: SHP2 activated with SHP2 activating peptide; DiFMUP 80 μM, 2 hours; fluorescence; read-out: IC50 (PTPase aS say). Format: biochemical.

Test [1] concerns phospho-ERK in MIA PaCa2 or H358 cells. Kind of test: Phospho-ERK assay (AlphaLisa). To be noted: 1.5 h, MIA PaCa2 or H358 cells, compound incubated 1.5 hours; read-out: IC50 (p-ERK). The test is classed as cell-based. (Alpha assays give light when donor and acceptor beads are brought close together.)

In patent publication US12029739B2, “SHP2 inhibitor and use thereof” (KANAPH THERAPEUTICS INC., priority 2021, dated 2024) one finds IC50 data, which are given here for 21 compounds.

The structures appear in SMILES notation.

Regarding `C[C@@H]1OCC2(CCN(c3cnc(Sc4ccc5nn(Cc6ccccc6)cc5c4Cl)cn3)CC2)[C@@H]1N` [Example 49, (3S,4S)-8-(5-((2-benzyl-4-chloro-2H-indazol-5-yl)thio)pyrazin-2-yl)-3-methyl-2-oxa-8-azaspiro[4.5]decan-4-amine], the 50% inhibitory concentration (IC50) (as a rule, the concentration that gives 50% inhibition) on SHP2 (full length) was 0.003 to 0.1 µM; in test [1], over 1.5 µM.
In the case of `C[C@@H]1OCC2(CCN(c3cnc(Sc4ccc5nc(Cc6ccccc6)[nH]c5c4Cl)cn3)CC2)[C@@H]1N` [Example 50, (3S,4S)-8-(5-((2-benzyl-7-chloro-1H-benzo[d]imidazol-6-yl)thio)pyrazin-2-yl)-3-methyl-2-oxa-8-azaspiro[4.5]decan-4-amine], the 50% inhibitory concentration (IC50) at SHP2 (full length) fell in the range of 0.003 to 0.1 µM; in test [1] it was 0.045 to 1.5 µM.
Regarding `C[C@@H]1OCC2(CCN(c3cnc(Sc4ccc5ncn(-c6ccccc6)c(=O)c5c4Cl)cn3)CC2)[C@@H]1N` [Example 51, 6-((5-((3S,4S)-4-amino-3-methyl-2-oxa-8-azaspiro[4.5]decan-8-yl)pyrazin-2-yl)thio)-5-chloro-3-phenylquinazolin-4(3H)-one], the IC50 at SHP2 (full length) was under 0.003 µM; in test [1] it was 0.045 to 1.5 µM.
The like results for `C[C@@H]1OCC2(CCN(c3cnc(Sc4ccc5ncn(Cc6cccnc6N)c(=O)c5c4Cl)cn3)CC2)[C@@H]1N` [Example 52, 6-((5-((3S,4S)-4-amino-3-methyl-2-oxa-8-azaspiro[4.5]decan-8-yl)pyrazin-2-yl)thio)-3-((2-aminopyridin-3-yl)methyl)-5-chloroquinazolin-4(3H)-one] were, in that order, 0.003 to 0.1 µM and 0.045 to 1.5 µM.
The like results for `C[C@@H]1OCC2(CCN(c3cnc(Sc4ccc5ncn(Cc6ccn(C)n6)c(=O)c5c4Cl)cn3)CC2)[C@@H]1N` [Example 53, 6-((5-((3S,4S)-4-amino-3-methyl-2-oxa-8-azaspiro[4.5]decan-8-yl)pyrazin-2-yl)thio)-5-chloro-3-((1-methyl-1H-pyrazol-3-yl)methyl)quinazolin-4(3H)-one] were, in that order, 0.003 to 0.1 µM and under 0.045 µM.
For `C[C@@H]1OCC2(CCN(c3cnc(Sc4ccc5ncn(Cc6ccnc(Cl)c6)c(=O)c5c4Cl)cn3)CC2)[C@@H]1N` [Example 60, 6-((5-((3S,4S)-4-amino-3-methyl-2-oxa-8-azaspiro[4.5]decan-8-yl)pyrazin-2-yl)thio)-5-chloro-3-((2-chloropyridin-4-yl)methyl)quinazolin-4(3H)-one], the results for the IC50 (on SHP2 (full length); in test [1]) were under 0.003 µM and under 0.045 µM, respectively.
The corresponding values for `C[C@@H]1OCC2(CCN(c3cnc(Sc4ccc5ncn(CC6CCOC6)c(=O)c5c4Cl)cn3)CC2)[C@@H]1N` (stereo partly drawn) [Example 61, 6-((5-((3S,4S)-4-amino-3-methyl-2-oxa-8-azaspiro[4.5]decan-8-yl)pyrazin-2-yl)thio)-5-chloro-3-((tetrahydrofuran-3-yl)methyl)quinazolin-4(3H)-one] are under 0.003 µM and under 0.045 µM.
Turning to `C[C@@H]1OCC2(CCN(c3cnc(Sc4ccc5ncn(CC6CCCO6)c(=O)c5c4Cl)cn3)CC2)[C@@H]1N` (stereo partly drawn) [Example 62, 6-((5-((3S,4S)-4-amino-3-methyl-2-oxa-8-azaspiro[4.5]decan-8-yl)pyrazin-2-yl)thio)-5-chloro-3-((tetrahydrofuran-2-yl)methyl)quinazolin-4(3H)-one], the values for the IC50 (at SHP2 (full length); in test [1]) were under 0.003 µM and under 0.045 µM, respectively.
The like results for `C[C@@H]1OCC2(CCN(c3cnc(Sc4ccc5ncn(CCCO)c(=O)c5c4Cl)cn3)CC2)[C@@H]1N` [Example 63, 6-((5-((3S,4S)-4-amino-3-methyl-2-oxa-8-azaspiro[4.5]decan-8-yl)pyrazin-2-yl)thio)-5-chloro-3-(3-hydroxypropyl)quinazolin-4(3H)-one] were, in that order, under 0.003 µM and under 0.045 µM.
The like results for `COCCn1cnc2ccc(Sc3cnc(N4CCC5(CC4)CO[C@@H](C)[C@H]5N)cn3)c(Cl)c2c1=O` [Example 64, 6-((5-((3S,4S)-4-amino-3-methyl-2-oxa-8-azaspiro[4.5]decan-8-yl)pyrazin-2-yl)thio)-5-chloro-3-(2-methoxyethyl)quinazolin-4(3H)-one] were, in that order, under 0.003 µM and under 0.045 µM.
The corresponding values for `C[C@@H]1OCC2(CCN(c3cnc(Sc4ccc5ncn(CC6CCOCC6)c(=O)c5c4Cl)cn3)CC2)[C@@H]1N` [Example 65, 6-((5-((3S,4S)-4-amino-3-methyl-2-oxa-8-azaspiro[4.5]decan-8-yl)pyrazin-2-yl)thio)-5-chloro-3-((tetrahydro-2H-pyran-4-yl)methyl)quinazolin-4(3H)-one] are under 0.003 µM and under 0.045 µM.
With `C[C@@H]1OCC2(CCN(c3cnc(Sc4ccc5ncn(Cc6cccc(O)c6)c(=O)c5c4Cl)cn3)CC2)[C@@H]1N` [Example 66, 6-((5-((3S,4S)-4-amino-3-methyl-2-oxa-8-azaspiro[4.5]decan-8-yl)pyrazin-2-yl)thio)-5-chloro-3-(3-hydroxybenzyl)quinazolin-4(3H)-one], the IC50 is under 0.003 µM on SHP2 (full length) and under 0.045 µM in test [1].
Take `C[C@@H]1OCC2(CCN(c3cnc(Sc4ccc5ncn(CCN(C)C)c(=O)c5c4Cl)cn3)CC2)[C@@H]1N` [Example 67, 6-((5-((3S,4S)-4-amino-3-methyl-2-oxa-8-azaspiro[4.5]decan-8-yl)pyrazin-2-yl)thio)-5-chloro-3-(2-(dimethylamino)ethyl)quinazolin-4(3H)-one]: the IC50 at SHP2 (full length) was in the range of 0.003 to 0.1 µM; in test [1], 0.045 to 1.5 µM.
The corresponding values for `C[C@@H]1OCC2(CCN(c3cnc(Sc4ccc5ncn(CCCN(C)C)c(=O)c5c4Cl)cn3)CC2)[C@@H]1N` [Example 68, 6-((5-((3S,4S)-4-amino-3-methyl-2-oxa-8-azaspiro[4.5]decan-8-yl)pyrazin-2-yl)thio)-5-chloro-3-(3-(dimethylamino)propyl)quinazolin-4(3H)-one] are 0.003 to 0.1 µM and 0.045 to 1.5 µM.
Regarding `Cc1ccc(Cn2cnc3ccc(Sc4cnc(N5CCC6(CC5)CO[C@@H](C)[C@H]6N)cn4)c(Cl)c3c2=O)c(F)c1` [Example 69, 6-((5-((3S,4S)-4-amino-3-methyl-2-oxa-8-azaspiro[4.5]decan-8-yl)pyrazin-2-yl)thio)-5-chloro-3-(2-fluoro-4-methylbenzyl)quinazolin-4(3H)-one], the IC50 was under 0.003 µM at SHP2 (full length) and under 0.045 µM in test [1].
The corresponding values for `COc1cccc(Cn2cnc3ccc(Sc4cnc(N5CCC6(CC5)CO[C@@H](C)[C@H]6N)cn4)c(Cl)c3c2=O)c1F` [Example 70, 6-((5-((3S,4S)-4-amino-3-methyl-2-oxa-8-azaspiro[4.5]decan-8-yl)pyrazin-2-yl)thio)-5-chloro-3-(2-fluoro-3-methoxybenzyl)quinazolin-4(3H)-one] are under 0.003 µM and under 0.045 µM.
Regarding `C[C@@H]1OCC2(CCN(c3cnc(Sc4ccc5ncn(Cc6ccnc(C#N)c6)c(=O)c5c4Cl)cn3)CC2)[C@@H]1N` [Example 71, 4-((6-((5-((3S,4S)-4-amino-3-methyl-2-oxa-8-azaspiro[4.5]decan-8-yl)pyrazin-2-yl)thio)-5-chloro-4-oxoquinazolin-3(4H)-yl)methyl)picolinonitrile], the results for the IC50 (on SHP2 (full length); in test [1]) were under 0.003 µM and under 0.045 µM, respectively.
The like results for `COc1ccc(Cn2cnc3ccc(Sc4cnc(N5CCC6(CC5)CO[C@@H](C)[C@H]6N)cn4)c(Cl)c3c2=O)c(F)c1` [Example 72, 6-((5-((3S,4S)-4-amino-3-methyl-2-oxa-8-azaspiro[4.5]decan-8-yl)pyrazin-2-yl)thio)-5-chloro-3-(2-fluoro-4-methoxybenzyl)quinazolin-4(3H)-one] were, in that order, under 0.003 µM and under 0.045 µM.
For `COc1ccc(Cn2cnc3ccc(Sc4cnc(N5CCC6(CC5)CO[C@@H](C)[C@H]6N)cn4)c(Cl)c3c2=O)cc1F` [Example 73, 6-((5-((3S,4S)-4-amino-3-methyl-2-oxa-8-azaspiro[4.5]decan-8-yl)pyrazin-2-yl)thio)-5-chloro-3-(3-fluoro-4-methoxybenzyl)quinazolin-4(3H)-one], the results for the IC50 (at SHP2 (full length); in test [1]) were under 0.003 µM and under 0.045 µM, respectively.
In the case of `C[C@@H]1OCC2(CCN(c3cnc(Sc4ccc5ncn(CC6CCCN6C)c(=O)c5c4Cl)cn3)CC2)[C@@H]1N` (stereo partly drawn) [Example 74, 6-((5-((3S,4S)-4-amino-3-methyl-2-oxa-8-azaspiro[4.5]decan-8-yl)pyrazin-2-yl)thio)-5-chloro-3-((l-methylpyrrolidin-2-yl)methyl)quinazolin-4(3H)-one], the IC50 at SHP2 (full length) fell in the range of 0.003 to 0.1 µM; in test [1] it was 0.045 to 1.5 µM.
The corresponding values for `C[C@@H]1OCC2(CCN(c3cnc(Sc4ccc5ncn(CC(F)(F)F)c(=O)c5c4Cl)cn3)CC2)[C@@H]1N` [Example 75, 6-((5-((3S,4S)-4-amino-3-methyl-2-oxa-8-azaspiro[4.5]decan-8-yl)pyrazin-2-yl)thio)-5-chloro-3-(2,2,2-trifluoroethyl)quinazolin-4(3H)-one] are 0.003 to 0.1 µM and 0.045 to 1.5 µM.
